Source: PubChem BioAssay (NCI)
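All cell lines were grown in 96-well plates and treated with compound for 48 hours. GI50: concentration for 50% inhibition of growth. TGI is the concentration that stops growth completely.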

What was measured:
Test in all cases: DTP human tumour cell line panel, 48 h
[1] = test system: 786-0 renal
[2] = test system: A498 renal
[3] = test system: A549 NSCLC
[4] = test system: ACHN renal
[5] = test system: BT-549 breast
[6] = test system: CAKI-1 renal
[7] = test system: CCRF-CEM leukemia
[8] = test system: COLO 205 colon
[9] = test system: DU-145 prostate
[10] = test system: EKVX NSCLC
[11] = test system: HCC-2998 colon
[12] = test system: HCT-116 colon
[13] = test system: HCT-15 colon
[14] = test system: HL-60(TB) leukemia
[15] = test system: HOP-62 NSCLC
[16] = test system: HOP-92 NSCLC
[17] = test system: HS 578T breast
[18] = test system: HT29 colon
[19] = test system: IGROV1 ovarian
[20] = test system: K-562 leukemia
[21] = test system: LOX IMVI melanoma
[22] = test system: M14 melanoma
[23] = test system: MALME-3M melanoma
[24] = test system: MCF7 breast
[25] = test system: MDA-MB-231 breast
[26] = test system: MDA-MB-435
[27] = test system: MOLT-4 leukemia
[28] = test system: NCI-H226 lung
[29] = test system: NCI-H23 lung
[30] = test system: NCI-H460 lung
[31] = test system: NCI-H522 lung
[32] = test system: NCI/ADR-RES ovarian
[33] = test system: OVCAR-3 ovarian
[34] = test system: OVCAR-4 ovarian
[35] = test system: OVCAR-5 ovarian
[36] = test system: OVCAR-8 ovarian
[37] = test system: PC-3 prostate
[38] = test system: RPMI-8226 leukemia
[39] = test system: RXF 393 renal
[40] = test system: SF-268 CNS
[41] = test system: SF-295 CNS
[42] = test system: SF-539 CNS
[43] = test system: SK-MEL-2 melanoma
[44] = test system: SK-MEL-28 melanoma
[45] = test system: SK-MEL-5 melanoma
[46] = test system: SK-OV-3 ovarian
[47] = test system: SN12C renal
[48] = test system: SNB-19 CNS
[49] = test system: SNB-75 CNS
[50] = test system: SR leukemia
[51] = test system: SW-620 colon
[52] = test system: TK-10 renal
[53] = test system: U251 CNS
[54] = test system: UACC-257 melanoma
[55] = test system: UACC-62 melanoma
[56] = test system: UO-31 renal

Question: What does the source list for `CC1OC(O[C@@H]2C(O)C(CO)OC(O[C@H]3COC(O[C@H]4CC[C@]5(C)[C@H]6CC[C@]78OC[C@@]9(CC[C@](C)(C=O)C[C@H]97)[C@H](O)C[C@@]8(C)[C@]6(C)CC[C@H]5C4(C)C)[C@@H](OC4OC(CO)[C@@H](O)[C@@H](O)[C@@H]4O)[C@@H]3O)[C@H]2OC2OC[C@@H](O)[C@@H](O)[C@@H]2O)[C@@H](O)[C@@H](O)[C@H]1O` (some centres not stated)?
Answer: GI50 [1]: 2.14 µM; TGI [1]: 3.97 µM; GI50 [2]: 2.26 µM; TGI [2]: 3.98 µM; GI50 [3]: 2.11 µM; TGI [3]: 4.04 µM; GI50 [4]: 1.5 µM; TGI [4]: 2.92 µM; GI50 [5]: 1.77 µM; TGI [5]: 3.5 µM; GI50 [6]: 1.89 µM; TGI [6]: 3.48 µM; GI50 [7]: 1.21 µM; TGI [7]: 4.34 µM; GI50 [8]: 1.62 µM; TGI [8]: 3.16 µM; GI50 [9]: 1.95 µM; TGI [9]: 3.71 µM; GI50 [10]: 1.93 µM; TGI [10]: 3.84 µM; GI50 [11]: 1.95 µM; TGI [11]: 3.52 µM; GI50 [12]: 1.48 µM; TGI [12]: 2.98 µM; GI50 [13]: 2.23 µM; TGI [13]: 5.01 µM; GI50 [14]: 0.598 µM; TGI [14]: 2.19 µM; GI50 [15]: 1.76 µM; TGI [15]: 3.47 µM; GI50 [16]: 0.982 µM; TGI [16]: 2.62 µM; GI50 [17]: 1.92 µM; TGI [17]: 4.14 µM; GI50 [18]: 1.99 µM; TGI [18]: 4.02 µM; GI50 [19]: 1.82 µM; TGI [19]: 3.93 µM; GI50 [20]: 2.2 µM; TGI [20]: 5.68 µM; GI50 [21]: 1.74 µM; TGI [21]: 3.39 µM; GI50 [22]: 1.71 µM; TGI [22]: 3.4 µM; GI50 [23]: 1.74 µM; TGI [23]: 3.51 µM; GI50 [24]: 1.98 µM; TGI [24]: 4.11 µM; GI50 [25]: 1.76 µM; TGI [25]: 3.51 µM; GI50 [26]: 1.85 µM; TGI [26]: 3.57 µM; GI50 [27]: 1.13 µM; TGI [27]: 3.98 µM; GI50 [28]: 1.89 µM; TGI [28]: 3.98 µM; GI50 [29]: 1.89 µM; TGI [29]: 3.74 µM; GI50 [30]: 1.88 µM; TGI [30]: 3.83 µM; GI50 [31]: 1.97 µM; TGI [31]: 3.75 µM; GI50 [32]: 1.97 µM; TGI [32]: 4.15 µM; GI50 [33]: 1.98 µM; TGI [33]: 3.82 µM; GI50 [34]: 1.84 µM; TGI [34]: 3.93 µM; GI50 [35]: 1.86 µM; TGI [35]: 3.42 µM; GI50 [36]: 2.1 µM; TGI [36]: 4.28 µM; GI50 [37]: 1.95 µM; TGI [37]: 3.64 µM; GI50 [38]: 1.73 µM; TGI [38]: 4.28 µM; GI50 [39]: 0.811 µM; TGI [39]: 2.4 µM; GI50 [40]: 1.91 µM; TGI [40]: 3.91 µM; GI50 [41]: 1.76 µM; TGI [41]: 3.31 µM; GI50 [42]: 1.61 µM; TGI [42]: 3.1 µM; GI50 [43]: 2.33 µM; TGI [43]: 4.24 µM; GI50 [44]: 1.69 µM; TGI [44]: 3.29 µM; GI50 [45]: 2.38 µM; TGI [45]: 5.81 µM; GI50 [46]: 1.92 µM; TGI [46]: 3.49 µM; GI50 [47]: 1.7 µM; TGI [47]: 3.51 µM; GI50 [48]: 1.81 µM; TGI [48]: 3.71 µM; GI50 [49]: 1.7 µM; TGI [49]: 3.25 µM; GI50 [50]: 0.357 µM; TGI [50]: 1.24 µM; GI50 [51]: 1.84 µM; TGI [51]: 3.7 µM; GI50 [52]: 2.79 µM; TGI [52]: 4.51 µM; GI50 [53]: 2.12 µM; TGI [53]: 3.87 µM; GI50 [54]: 2.03 µM; TGI [54]: 3.77 µM; GI50 [55]: 1.97 µM; TGI [55]: 3.82 µM; GI50 [56]: 1.35 µM; TGI [56]: 2.82 µM
